Data set [1] relates to Human immunodeficiency virus 1. In words: Antiviral activity against HIV1 NL4-3 with gp120 mutation […] infected in human MT4 cells assessed as inhibition of virus-induced cytopathic effect after 5 days by MTT assay. As to conditions: Human immunodeficiency virus 1, NL4-3, MT4, 120 h. The data set is classed as functional, organism-based. For orientation: Cytopathic effects are the visible damage that an infection or toxin causes in cultured cells.

In data set [2] the test system is Human immunodeficiency virus 1. As to the kind of experiment: Antiviral activity against HIV1 NL4-3 infected in human MT4 cells assessed as inhibition of virus-induced cytopathic effect after 5 days by MTT assay. The settings on record: Human immunodeficiency virus 1, NL4-3, MT4, 120 h. The data set is classed as functional, organism-based.
The nature of data set [3]: Cytotoxicity against human MT4 cells after 5 days by MTT assay. It is filed as cell-based. (In general: Tetrazolium assays rely on reduction of a dye to a coloured formazan, in cell work by metabolically active cells.)
Data set [4] relates to Human immunodeficiency virus 1. As to the kind of experiment: Antiviral activity against HIV1 NL4-3 infected in human MT4 cells assessed as capsid p24antigen production at 100 times EC50 treated before infection by ELISA. It is filed as functional, organism-based. On the technique in general: An ELISA detects its analyte on a solid surface through an enzyme-linked reagent.

Data set [5] has as its system Human immunodeficiency virus 1. As to the kind of experiment: Antiviral activity against HIV1 NL4-3 infected in human MT4 cells assessed as capsid p24antigen production at 100 times EC50 treated after infection by ELISA. It is filed as functional, organism-based.

Activity calls are given as the source filed them. The rule behind the calls is not given here.

The EC50 is the concentration that produces a half-maximal response. A word on the CC50: it is the concentration that lowers cell viability or growth by half. Regarding `C[C@@H]1CN(C(=O)c2ccccc2)CCN1C(=O)C(=O)c1cc2ccccc2[nH]1`, the EC50 was over 2.66 µM in data set [1] and 0.024 µM in data set [2]. Further, the CC50 at 120 h in data set [3] is over 2.66 µM.
For the compound `COc1ccc(/C=N/c2nc3ccccc3n2Cc2ccc(Cl)cc2)cc1OC`, the 50% effective concentration (EC50) in data set [2] was over 62 µM. Besides, the CC50 at 120 h in data set [3] was over 62 µM.
In the case of `COc1nc(N/N=C/c2ccc(-c3ccc(Cl)c([N+](=O)[O-])c3)o2)nc(N2CCOCC2)n1`, the EC50 in data set [2] was over 54 µM. In data set [3], this compound returned a CC50 at 120 h of over 54 µM.
For the compound `CCOC(=O)/C(=C\c1ccc(-c2cccc([N+](=O)[O-])c2)o1)C(=O)c1ccccc1`, the outcome in data set [4] was Active. In addition, the EC50 was over 64 µM in data set [1] and 9 µM in data set [2]. For the same compound, the CC50 at 120 h in data set [3] was over 64 µM. In addition, the result in data set [5] was inactive.
As to `C=CCn1c(SCc2ccc(C(=O)NCCO)cc2)nc2ccccc2c1=O`, the EC50 in data set [2] is over 63 µM. In data set [3], this compound had a CC50 at 120 h of over 63 µM.
For `CCOC(=O)[C@H](Cc1ccc(/N=C/c2cc(Br)ccc2O)cc1)N1C(=O)c2ccccc2C1=O`, the values for the EC50 in data set [1] and in data set [2] were over 48 µM and 22 µM, respectively. This compound yielded a CC50 at 120 h in data set [3] of over 48 µM.
